Columns and labels:
Assay in all cases: ABPP chemical proteomics (LC-MS/MS) in HEK293T cells
Assay type in all cases: cell-based
RER1 = molecular target: T1, RER1 (Homo sapiens, UniProt O15258); conditions: IMP-2586 labelling vs DMSO, 30 nM, 10 min, HEK293T (Table S4, Fig.5c)
T1 construct: endogenous in cells; host or cells: HEK293T
How it was run: (§1)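 After inhibitor treatment, HEK293T cells were exposed to ABP 2 or ABP 4 at indicated concentrations (1 h, 37 °C). Tagged proteins were captured via click chemistry and NeutrAvidin enrichment, and relative abundance was measured by LC-MS/MS.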

SFT2D3 = molecular target: T2, SFT2D3 (Homo sapiens, UniProt Q587I9); conditions: IMP-2586 labelling vs DMSO, 30 nM, 10 min, HEK293T (Table S4, Fig.5c)
T2 construct: endogenous in cells; host or cells: HEK293T
How it was run: as §1

MDC1 = molecular target: T3, MDC1 (Homo sapiens, UniProt Q14676); conditions: IMP-2586 labelling vs DMSO, 30 nM, 10 min, HEK293T (Table S4, Fig.5c)
T3 construct: endogenous in cells; host or cells: HEK293T
How it was run: as §1

CAV1 = conditions: IMP-2586 labelling vs DMSO, 30 nM, 10 min, HEK293T (Table S4, Fig.5c)
How it was run: as §1

AURKAIP1 = molecular target: T4, AURKAIP1 (Homo sapiens, UniProt Q9NWT8); conditions: IMP-2586 labelling vs DMSO, 30 nM, 10 min, HEK293T (Table S4, Fig.5c)
T4 construct: endogenous in cells; host or cells: HEK293T
How it was run: as §1

TMEM109 = molecular target: T5, TMEM109 (Homo sapiens, UniProt Q9BVC6); conditions: IMP-2586 labelling vs DMSO, 30 nM, 10 min, HEK293T (Table S4, Fig.5c)
T5 construct: endogenous in cells; host or cells: HEK293T
How it was run: as §1

ASAH1 = molecular target: T6, ASAH1 (Homo sapiens, UniProt Q13510); conditions: IMP-2586 labelling vs DMSO, 30 nM, 10 min, HEK293T (Table S4, Fig.5c)
T6 construct: endogenous in cells; host or cells: HEK293T
How it was run: as §1

RPL23A = molecular target: T7, RPL23A (Homo sapiens, UniProt P62750); conditions: IMP-2586 labelling vs DMSO, 30 nM, 10 min, HEK293T (Table S4, Fig.5c)
T7 construct: endogenous in cells; host or cells: HEK293T
How it was run: as §1

CFAP20 = molecular target: T8, CFAP20 (Homo sapiens, UniProt Q9Y6A4); conditions: IMP-2586 labelling vs DMSO, 30 nM, 10 min, HEK293T (Table S4, Fig.5c)
T8 construct: endogenous in cells; host or cells: HEK293T
How it was run: as §1

NIT2 = molecular target: T9, NIT2 (Homo sapiens, UniProt Q9NQR4); conditions: IMP-2587 labelling vs DMSO, 30 nM, 10 min, HEK293T (Table S2, Fig.5a)
T9 construct: endogenous in cells; host or cells: HEK293T
How it was run: as §1

H2AFV;H2AFZ = conditions: IMP-2587 labelling vs DMSO, 30 nM, 10 min, HEK293T (Table S2, Fig.5a)
How it was run: as §1

RPL34 = molecular target: T10, RPL34 (Homo sapiens, UniProt P49207); conditions: compound 1 out-competition with IMP-2587 labelling, HEK293T (Table S3, Fig.5b)
T10 construct: endogenous in cells; host or cells: HEK293T
How it was run: as §1

RPL10 = molecular target: T11, RPL10 (Homo sapiens, UniProt P27635); conditions: compound 1 out-competition with IMP-2587 labelling, HEK293T (Table S3, Fig.5b)
T11 construct: endogenous in cells; host or cells: HEK293T
How it was run: as §1

DCD = molecular target: T12, DCD (Homo sapiens, UniProt P81605); conditions: compound 1 out-competition with IMP-2587 labelling, HEK293T (Table S3, Fig.5b)
T12 construct: endogenous in cells; host or cells: HEK293T
How it was run: as §1

LUC7L3 = molecular target: T13, LUC7L3 (Homo sapiens, UniProt O95232); conditions: compound 3 out-competition with IMP-2586 labelling, HEK293T (Table S5, Fig.5d)
T13 construct: endogenous in cells; host or cells: HEK293T
How it was run: as §1

T9 sequence (Q9NQR4 whole entry): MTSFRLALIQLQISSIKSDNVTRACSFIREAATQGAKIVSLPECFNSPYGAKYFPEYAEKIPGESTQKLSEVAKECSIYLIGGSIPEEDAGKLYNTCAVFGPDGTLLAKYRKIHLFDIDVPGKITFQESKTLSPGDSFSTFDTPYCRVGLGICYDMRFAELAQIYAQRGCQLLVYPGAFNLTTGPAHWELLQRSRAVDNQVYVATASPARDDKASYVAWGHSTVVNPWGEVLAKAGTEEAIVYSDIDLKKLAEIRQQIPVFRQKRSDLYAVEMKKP
T5 sequence (Q9BVC6 34-243): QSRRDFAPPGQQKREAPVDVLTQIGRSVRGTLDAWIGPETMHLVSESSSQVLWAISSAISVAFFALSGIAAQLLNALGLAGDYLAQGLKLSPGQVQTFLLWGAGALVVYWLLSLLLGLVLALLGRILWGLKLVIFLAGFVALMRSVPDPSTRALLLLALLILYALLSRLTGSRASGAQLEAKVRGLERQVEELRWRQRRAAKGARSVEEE
T13 sequence (O95232 whole entry): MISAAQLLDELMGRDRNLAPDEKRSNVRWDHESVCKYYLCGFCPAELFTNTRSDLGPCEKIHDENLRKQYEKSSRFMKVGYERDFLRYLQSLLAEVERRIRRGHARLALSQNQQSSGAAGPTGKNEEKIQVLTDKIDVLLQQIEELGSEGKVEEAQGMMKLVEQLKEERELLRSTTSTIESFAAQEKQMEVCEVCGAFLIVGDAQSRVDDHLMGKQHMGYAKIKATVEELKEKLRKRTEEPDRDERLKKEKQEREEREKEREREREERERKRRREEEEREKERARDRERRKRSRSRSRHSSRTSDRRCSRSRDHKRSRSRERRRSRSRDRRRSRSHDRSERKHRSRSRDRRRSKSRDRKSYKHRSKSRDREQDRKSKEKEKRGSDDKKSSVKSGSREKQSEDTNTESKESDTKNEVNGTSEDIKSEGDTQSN
T2 sequence (Q587I9 whole entry): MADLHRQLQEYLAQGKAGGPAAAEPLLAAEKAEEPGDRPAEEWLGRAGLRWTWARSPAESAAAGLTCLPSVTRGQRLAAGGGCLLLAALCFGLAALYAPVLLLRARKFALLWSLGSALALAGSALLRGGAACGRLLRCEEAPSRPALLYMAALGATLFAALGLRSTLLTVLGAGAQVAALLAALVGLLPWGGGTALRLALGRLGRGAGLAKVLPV
T12 sequence (P81605 20-110): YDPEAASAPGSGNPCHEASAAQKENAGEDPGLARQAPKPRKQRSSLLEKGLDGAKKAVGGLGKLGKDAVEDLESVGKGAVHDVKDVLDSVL
T8 sequence (Q9Y6A4 whole entry): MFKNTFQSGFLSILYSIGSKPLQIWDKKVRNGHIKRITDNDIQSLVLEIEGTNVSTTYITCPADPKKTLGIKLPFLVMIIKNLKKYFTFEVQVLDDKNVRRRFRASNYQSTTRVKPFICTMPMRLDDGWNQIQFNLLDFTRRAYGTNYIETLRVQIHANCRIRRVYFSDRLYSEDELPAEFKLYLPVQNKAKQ
T6 sequence (Q13510 22-395): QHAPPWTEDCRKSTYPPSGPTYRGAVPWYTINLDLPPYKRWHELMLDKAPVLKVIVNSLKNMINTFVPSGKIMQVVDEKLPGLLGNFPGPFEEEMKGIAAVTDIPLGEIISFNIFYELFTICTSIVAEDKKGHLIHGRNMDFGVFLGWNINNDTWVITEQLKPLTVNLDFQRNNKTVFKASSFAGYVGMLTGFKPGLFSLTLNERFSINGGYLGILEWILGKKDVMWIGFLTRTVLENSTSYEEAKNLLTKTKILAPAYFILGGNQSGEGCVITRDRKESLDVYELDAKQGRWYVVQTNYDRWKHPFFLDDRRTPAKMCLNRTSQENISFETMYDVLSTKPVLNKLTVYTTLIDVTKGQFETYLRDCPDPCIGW
T3 sequence (Q14676 whole entry): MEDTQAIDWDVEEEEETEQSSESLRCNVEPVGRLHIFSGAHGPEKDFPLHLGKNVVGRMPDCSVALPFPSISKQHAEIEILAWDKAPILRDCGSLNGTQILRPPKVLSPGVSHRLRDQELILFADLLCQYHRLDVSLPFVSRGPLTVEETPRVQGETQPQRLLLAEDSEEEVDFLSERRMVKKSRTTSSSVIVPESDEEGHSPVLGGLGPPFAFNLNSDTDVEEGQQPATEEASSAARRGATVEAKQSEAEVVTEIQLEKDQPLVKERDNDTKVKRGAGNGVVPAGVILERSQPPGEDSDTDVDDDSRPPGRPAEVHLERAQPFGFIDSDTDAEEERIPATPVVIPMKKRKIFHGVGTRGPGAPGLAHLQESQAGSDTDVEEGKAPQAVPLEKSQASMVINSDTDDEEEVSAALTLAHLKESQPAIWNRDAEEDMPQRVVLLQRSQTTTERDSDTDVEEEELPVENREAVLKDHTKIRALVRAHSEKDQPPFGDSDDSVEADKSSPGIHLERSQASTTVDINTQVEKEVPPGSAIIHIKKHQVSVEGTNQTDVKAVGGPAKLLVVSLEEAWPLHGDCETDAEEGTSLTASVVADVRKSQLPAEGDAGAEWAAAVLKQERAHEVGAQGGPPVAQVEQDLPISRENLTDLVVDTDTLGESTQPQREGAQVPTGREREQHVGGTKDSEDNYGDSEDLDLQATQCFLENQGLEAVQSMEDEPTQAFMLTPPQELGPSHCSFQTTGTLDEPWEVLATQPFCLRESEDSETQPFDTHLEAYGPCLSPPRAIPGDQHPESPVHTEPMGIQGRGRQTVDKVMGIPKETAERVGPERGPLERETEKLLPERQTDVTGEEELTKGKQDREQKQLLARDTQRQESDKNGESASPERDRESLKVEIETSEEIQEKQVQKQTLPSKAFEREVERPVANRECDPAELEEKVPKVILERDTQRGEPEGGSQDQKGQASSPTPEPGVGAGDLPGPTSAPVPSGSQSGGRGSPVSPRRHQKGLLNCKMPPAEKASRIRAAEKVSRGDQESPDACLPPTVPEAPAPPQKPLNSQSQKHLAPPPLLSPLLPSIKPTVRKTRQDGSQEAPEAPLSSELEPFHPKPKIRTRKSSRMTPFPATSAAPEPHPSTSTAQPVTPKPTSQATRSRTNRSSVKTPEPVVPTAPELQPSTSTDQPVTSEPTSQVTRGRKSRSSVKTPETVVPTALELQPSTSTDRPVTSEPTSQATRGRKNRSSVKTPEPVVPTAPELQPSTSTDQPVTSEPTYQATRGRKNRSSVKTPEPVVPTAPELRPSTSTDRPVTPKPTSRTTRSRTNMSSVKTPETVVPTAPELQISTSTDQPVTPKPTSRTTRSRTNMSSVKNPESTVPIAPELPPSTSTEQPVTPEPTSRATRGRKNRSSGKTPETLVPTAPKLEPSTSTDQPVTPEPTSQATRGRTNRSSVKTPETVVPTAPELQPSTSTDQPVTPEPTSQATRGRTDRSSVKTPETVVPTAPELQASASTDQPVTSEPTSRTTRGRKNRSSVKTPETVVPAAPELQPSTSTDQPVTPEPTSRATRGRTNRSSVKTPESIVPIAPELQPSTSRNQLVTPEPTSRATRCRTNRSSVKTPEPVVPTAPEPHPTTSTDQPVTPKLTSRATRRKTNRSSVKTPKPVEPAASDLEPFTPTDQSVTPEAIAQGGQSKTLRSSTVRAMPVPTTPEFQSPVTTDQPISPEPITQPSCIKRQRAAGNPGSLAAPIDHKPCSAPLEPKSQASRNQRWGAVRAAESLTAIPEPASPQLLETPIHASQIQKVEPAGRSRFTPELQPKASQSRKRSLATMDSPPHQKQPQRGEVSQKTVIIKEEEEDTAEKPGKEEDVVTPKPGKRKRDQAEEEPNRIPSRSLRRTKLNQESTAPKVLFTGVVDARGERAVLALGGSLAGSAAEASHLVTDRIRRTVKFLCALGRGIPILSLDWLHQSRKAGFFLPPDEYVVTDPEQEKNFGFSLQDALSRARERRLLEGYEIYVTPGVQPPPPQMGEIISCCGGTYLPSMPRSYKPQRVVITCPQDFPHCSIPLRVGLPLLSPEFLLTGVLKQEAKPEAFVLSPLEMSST
T1 sequence (O15258 whole entry): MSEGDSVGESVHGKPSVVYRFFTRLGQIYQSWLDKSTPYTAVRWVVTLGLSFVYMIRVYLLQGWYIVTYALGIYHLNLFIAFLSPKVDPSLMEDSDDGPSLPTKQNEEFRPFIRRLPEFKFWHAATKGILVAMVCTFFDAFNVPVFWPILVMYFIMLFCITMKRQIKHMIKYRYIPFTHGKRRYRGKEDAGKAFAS

N#CN1CC[C@@H](NC(=O)c2cc(-c3ccccc3Oc3ccc(N=[N+]=[N-])cc3)n[nH]2)C1 [IMP-2586]
Difference (log2 fold change of enrichment) (RER1): -1.34 | Difference (log2 fold change of enrichment) (SFT2D3): -1.51 | Difference (log2 fold change of enrichment) (MDC1): 0.38 | Difference (log2 fold change of enrichment) (CAV1; CAV1 (Caveolin)): -2.47 | Difference (log2 fold change of enrichment) (CAV1; CAV1 (Caveolin-1)): -1.61 | Difference (log2 fold change of enrichment) (AURKAIP1): 0.81 | Difference (log2 fold change of enrichment) (TMEM109): -1.56 | Difference (log2 fold change of enrichment) (ASAH1): 1.08 | Difference (log2 fold change of enrichment) (RPL23A): -0.57 | Difference (log2 fold change of enrichment) (CFAP20): -0.41

C#Cc1cccc(-c2cc(NC(=O)CC3CCN(C#N)C3)on2)c1 (stereo not shown) [IMP-2587]
Difference (log2 fold change of enrichment) (NIT2): 0.61 | Difference (log2 fold change of enrichment) (H2AFV;H2AFZ): 0.65

N#CN1CC[C@H](CC(=O)Nc2cc(-c3cccc(Cl)c3)no2)C1 [compound 1, reference compound]
Difference (log2 fold change of enrichment) (RPL34): -0.67 | Difference (log2 fold change of enrichment) (RPL10): -0.52 | Difference (log2 fold change of enrichment) (DCD): -0.34

N#CN1CC[C@@H](NC(=O)c2cc(-c3ccccc3Oc3ccccc3)n[nH]2)C1 [compound 3, reference compound]
Difference (log2 fold change of enrichment) (LUC7L3): -0.51

— article PMC11078216, “Discovery of potent and selective activity-based probes (ABPs) for the deubiquitinating enzyme USP30” (RSC Chemical Biology, 2024)
